Results taken from patent US10703752B2, “Integrin antagonists” (OXURION NV, priority 2018, dated 2020).
Structures can show the parent of a compound that is named as a salt.

Experiments:
[1] = target: platelet integrin αIIbβ3 (Homo sapiens, UniProt P05106+P08514); test: Competition ELISA, integrin antagonism (fibronectin ligand); details: fibronectin binding to coated receptor
Description: (§1) Suitable methods for determining EC50 values are known to the skilled person. One particular method to determine the value for a particular compound is a competition ELISA assay wherein the integrin receptor under investigation (in particular human αvβ3 integrin receptor) is coated to a multi-well plate using a 4 μg/mL solution and the wells are blocked with 5% bovine serum albumin. The fibronectin concentration to be used in the assay is determined experimentally in a separate experiment by testing the binding of various fibronectin concentrations to the coated integrin under investigation, the concentration of fibronectin for the assay being the one that gives 80% of maximal binding. The determined concentration of human fibronectin is then added to the coated and blocked wells in the presence of increasing concentrations of the compound. After 2 h incubation at 37° C., the wells are washed and the bound fibronectin is detected with the help of a specific reagent, such as a detectable anti-fibronectin antibody. Quantitative analysis of the data is then performed to determine EC50 values, i.e. the concentration of the compound that reduces fibronectin binding to the coated receptor by 50%.
(§2) The principle of the competition ELISA assays used here was as follows: (1) the integrin receptor under investigation was coated to 96-well plates and the wells were blocked, (2) an integrin ligand (fibronectin) was then added to the relevant wells in the presence of increasing concentrations of a given integrin antagonist, (3) after a defined amount of time, the wells were washed and the bound ligand was detected with the help of a specific reagent. Quantitative analysis of the data was then performed to determine EC50 values, i.e. the concentration of the integrin antagonist that reduces ligand binding to the coated receptor by 50%.

[2] = target: α5β1 integrin receptor (Homo sapiens, UniProt P05556+P08648); test: as above; details: fibronectin binding to coated receptor
Description: as §1, §2

[3] = target: αvβ3 integrin receptor (Homo sapiens, UniProt P05106+P06756); test: as above; details: fibronectin binding to coated receptor, read-out: EC50 ανβ3
Description: as §1, §2

[4] = target: αvβ5 integrin receptor (Homo sapiens, UniProt P06756+P18084); test: as above; details: fibronectin binding to coated receptor, read-out: EC50 ανβ5
Description: as §1, §2

[5] = tested on: human umbilical vein endothelial cells (HUVECs); test: ORIS Cell Migration Assay; format: cell-based; details: HUVEC, fibronectin-coated plates, 24 h migration
Description: Endothelial cell wound healing is mediated by endothelial cell migration and proliferation, both critical components of the angiogenesis process, and is routinely used as a surrogate model for in vitro angiogenic potential. The ORIS™ Cell Migration Assay was used with human umbilical vein endothelial cells (HUVECs).
HUVEC cells (SCCE-001, Cat no 1000519, Merck Chemicals) were cultured in T175 flasks (Cat no 353112, falcon) in EndoGro Growth Medium (SCME-003, Merck Chemicals) and split when they reached 90-100% confluence.
For the assay, cells were used at passage 2 to 4 after thawing and at 80-90% confluency. At the beginning of the day, the fibronectin-coated Oris™ Cell Migration Assay Plates (Cat no # CMAFN.101, AMS Biotechnology) were removed from refrigeration and placed at RT for 1 h. The Oris Detection Masks were washed with ethanol and applied to the bottom of the 96-well plates, aligning the Al corner of the masks with the Al corner of the plates. Cells were harvested by trypsinization (Cat no 25300, Gibco), centrifuged at 250 g for 5 mm and suspended at 0.4·10^6 per mL in complete EndoGro growth medium. 100 μL of the cell suspension were added to the wells and the plates were incubated for 6 h at 37° C. and 5% C02 to allow cells to adhere.
At the end of the incubation, the stopper tool was washed with ethanol and used to remove the stoppers from all the wells except the reference wells. […]
Just prior to the end of the incubation, a 4 μg/mL calcein AM (Cat no 354217, Beckton Dickinson) solution was prepared in pre-warmed HBSS (Cat no 14025, Gibco). […] After incubation the fluorescence was read at 494 nm excitation and 517 nm emission wavelengths using the Flexstation and the SofiMax Pro 5.4.5 software (Molecular Devices). The fluorescence was read from the bottom of the plates with the lid on to keep them sterile. The masks were then removed and pictures were taken with the Axiovert fluorescence microscope (Zeiss) using reflected light, GFP and a 2.5× objective.

[6] = tested on: RPE-choroid sclera explants; test: Murine choroidal explant assay (vessel sprouting); format: cell-based, C57BL/6J mice; details: for IC50: Mus musculus, murine choroid explants in fibrin gel, 3 to 4 days, read-out: IC50 vessel outgrowth
Text: The assay is based on a murine microvascular angiogenesis explant model, which closely mimics in viva choroidal angiogenesis. The major advantage of this organotypical culture model is that cells are kept within their normal environment, thereby preserving cell-cell interactions, while maintaining a higher level of experimental control than in animal models. The choroidal explant model or briefly EMCA model allows for rapid evaluation of new anti-angiogenic therapeutics, with the additional benefit of excluding the potential lack of exposure often encountered when testing small molecules in animal eyes. RPE-choroid sclera explants (hereinafter referred to as choroid explants) are embedded in a three-dimensional fibrinogen/fibrin gel. Addition of serum-containing medium induces extensive endothelial cell sprout outgrowth into the matrix after 3 to 4 days in culture.
All experiments were performed using 4 to 5-weeks old male C57BL/6J mice (Charles River Laboratories France), housed under standard laboratory conditions according to a normal day/night rhythm with ad libitum access to food and water. All animal experiments were approved by the Institutional Ethical Committee of KU Leuven.
After initial optimization, a general protocol was set-up. Briefly, after euthanasia of the mice using pentobarbital (200 mg/kg, IP, Dolethal, Vetoquinol) followed by cervical dislocation, eyes were immediately enucleated with curved forceps and kept in ice-cold DPBS (cat no 14190-136, Gihco). Under a stereomicroscope, the eye was placed in a drop of ice-cold DPBS, and held in place with forceps on an ice-cold petri dish. The cornea and lens were removed via a circumferential incision at the limbus (cornea-sclera boundary) using Vannas spring scissors (Fine Science Tools). Next, redundant muscles were removed from the remaining eyeball and a cut was made from the edge of the posterior chamber towards the optic nerve head. […]

| EC50 [1] [nM] | EC50 [2] [nM] | EC50 [3] [nM] | EC50 [4] [nM] | SMILES | IC50 [5] [nM] | IC50 [6] [nM] | endothelial sprout formation, in words ([6]; murine choroid explants) |
| --- | --- | --- | --- | --- | --- | --- | --- |
| 1 to 10 | 1 to 10 | 1 to 10 | 1 to 10 | COC(=O)CCOC(=O)N[C@@H](CNc1nc(C)nc(N2CCC(c3ccc4c(n3)NCCC4)CC2)c1C)C(=O)O [cpdA, (2S)-3-({2,5-dimethyl-6-[4-(5,6,7,8-tetrahydro-1,8-naphthyridin-2-yl)piperidin-1-yl]pyrimidin-4-yl}amino)-2-{[(3-methoxy-3-oxopropoxy)carbonyl]amino}propanoic acid trifluoro acetate, reference compound] | – | – | – |
| > 25 | 1 to 10 | 1 to 10 | 1 to 10 | Cc1nc(NC[C@H](NC(=O)OC(C)C(=O)O)C(=O)O)c(C)c(N2CCC(c3ccc4c(n3)NCCC4)CC2)n1 (stereo partly drawn) [cpd3, (2S)-2-{[(1-carboxyethoxy)carbonyl]amino}-3-({2,5-dimethyl-6-[4-(5,6,7,8-tetrahydro-1,8-naphthyridin-2-yl)piperidin-1-yl]pyrimidin-4-yl}amino)propanoic acid, dihydrochloride] | < 1000 | ~1000 | inhibition of vessel sprouting |
| > 25 | 1 to 10 | 1 to 10 | 1 to 10 | Cc1nc(NC[C@H](NC(=O)OCC(=O)O)C(=O)O)c(C)c(N2CCC(c3ccc4c(n3)NCCC4)CC2)n1 [cpd2, (2S)-2-([(carboxymethoxy)carbonyl]amino)-3-({2,5-dimethyl-6-[4-(5,6,7,8-tetrahydro-1,8-naphthyridin-2-yl)piperidin-1-yl]pyrimidin-4-yl}amino)propanoic acid dihydrochloride] | < 1000 | – | – |
| > 25 | 1 to 10 | 1 to 10 | 1 to 10 | Cc1nc(NC[C@H](NC(=O)OCCC(=O)O)C(=O)O)c(C)c(N2CCC(c3ccc4c(n3)NCCC4)CC2)n1 [cpd1, (2S)-2-{[(2-carboxyethoxy)carbonyl]amino}-3-({2,5-dimethyl-6-[4-(5,6,7,8-tetrahydro-1,8-naphthyridin-2-yl)piperidin-1-yl]pyrimidin-4-yl}amino)propanoic acid] | – | – | – |
| 1 to 10 | 1 to 10 | 10 to 25 | 1 to 10 | Cc1nc(NC[C@H](NC(=O)OCc2ccccc2)C(=O)O)c(C)c(N2CCC(c3ccc4c(n3)NCCC4)CC2)n1 [cpdB, reference compound] | < 1000 | ~1000 | – |
